# According to US20230181746A1, “BENZOYLHYDRAZIDE-DERIVED HDAC DEGRADERS AS THERAPEUTICS FOR TREATING CANCER AND OTHER HUMAN DISEASES” (University of Florida Research Foundation, Inc., priority 2020, published 2023):
# Columns and labels:
# HDAC3 = HDAC3 (Homo sapiens, UniProt O15379); experiment: HDAC3 degradation in breast cancer cell lines, Western blot; type: cell-based; set-up: endogenous in cells; host or cells: MDA-MB-468, T47D, MCF7; conditions: for DC50: T47D cells, read-out: DC50, HDAC3 degradation potency
# Excerpt: Data are presented as representative figures of two independent experiments.
# Cells were lysed for WB with antibodies against the indicated proteins. Antibodies against acetylated histones at specific sites (H3K27 and H4K5) and acetyl-lysine were used to assess levels of histone acetylation.
# Cells were lysed for WB. […] The indicated BC cell lines were exposed to DMSO, XZ9002, or XZ9002-NC at the indicated concentrations. Colonies were fixed and stained.
# Cell lines were obtained from ATCC and subsequently authenticated. Cells were cultured with DMEM supplemented with 10% bovine calf serum, penicillin to 10 units/mL, and streptomycin to 10 μg/mL. For viability assays, 5,000 cells/well were seeded in 96-well plates. […] For colony formation assay, cells (˜1,000 cells/well) were seeded in a 24-well plate in quadruplicates. […] Medium was replaced with freshly prepared medium containing DMSO, XZ9002 or XZ9002-NC every five days until visible colonies appeared, typically in 15 to 20 days after initial cell seeding. Cells were fixed with 4% paraformaldehyde for 15 min and stained with 2% methylene blue in 20% ethanol for 30 min to 1 h. The cells were washed twice with distilled water and dried in air. For western blotting, cell cultures were exposed to compounds as indicated in relevant figures. Medium was removed from culture plate, and 1 x passive lysis buffer was then added, the plates were frozen at −80° C. overnight and thawed at room temperature. The total cell lysates were mixed with a one fifth volume of 6x SDS sample buffer, heated at 95° C. for 5 min and cooled on ice. The lysates were cleared by centrifugation and then subjected to SDS-PAGE and western blotting essentially as described.
# HDAC2 = HDAC2 (Homo sapiens, UniProt Q92769); experiment: In vitro HDAC activity assay (HDAC-Glo I/II), HDAC2; type: biochemical; set-up: purchased BPS Bioscience 50002; conditions: average of three independent assays ± standard deviation
# Method: (§1) Purified HDAC1, HDAC2, and HDAC3 (in complex with the deacetylase activation domain of the human NCOR2 (amino acids 395-498)) were obtained from Enzo Life Sciences (HDAC1, catalog # BML-SE456-0050) and BPS Bioscience (HDAC2, catalog #50002 and HDAC3, catalog #50003), respectively. The enzyme activities were tested using the HDAC-Glo I/II reagents (Promega) according to a protocol provided by the manufacturer.
# HDAC1 = HDAC1 (Homo sapiens, UniProt Q13547); experiment: In vitro HDAC activity assay (HDAC-Glo I/II), HDAC1; type: biochemical; set-up: purchased Enzo Life Sciences BML-SE456-0050; conditions: average of three independent assays ± standard deviation
# Method: as §1
# [1] = target: T1, HDAC3 (in complex with the deacetylase activation domain of the human NCOR2 (amino acids 395-498)) (Homo sapiens, UniProt O15379); experiment: In vitro HDAC activity assay (HDAC-Glo I/II), HDAC3; type: biochemical; conditions: HDAC-Glo I/II; average of three independent assays ± standard deviation
# T1 construct: purchased BPS Bioscience 50003
# Method: as §1
# Chain of HDAC1 (Q13547 whole entry): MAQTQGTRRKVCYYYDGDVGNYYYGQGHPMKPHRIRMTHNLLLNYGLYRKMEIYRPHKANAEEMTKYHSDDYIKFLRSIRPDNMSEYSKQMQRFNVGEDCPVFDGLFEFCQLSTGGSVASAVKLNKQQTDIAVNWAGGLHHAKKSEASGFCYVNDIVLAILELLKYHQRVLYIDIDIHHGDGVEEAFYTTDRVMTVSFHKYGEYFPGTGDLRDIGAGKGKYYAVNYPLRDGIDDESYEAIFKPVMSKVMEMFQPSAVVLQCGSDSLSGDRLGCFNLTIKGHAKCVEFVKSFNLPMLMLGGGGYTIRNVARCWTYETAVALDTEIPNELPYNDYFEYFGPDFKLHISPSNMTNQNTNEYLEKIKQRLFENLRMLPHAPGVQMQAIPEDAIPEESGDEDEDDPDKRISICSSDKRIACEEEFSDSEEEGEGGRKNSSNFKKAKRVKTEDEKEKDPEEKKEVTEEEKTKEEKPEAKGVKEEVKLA
# Chain of HDAC2 (Q92769 whole entry, the tested form may be a part): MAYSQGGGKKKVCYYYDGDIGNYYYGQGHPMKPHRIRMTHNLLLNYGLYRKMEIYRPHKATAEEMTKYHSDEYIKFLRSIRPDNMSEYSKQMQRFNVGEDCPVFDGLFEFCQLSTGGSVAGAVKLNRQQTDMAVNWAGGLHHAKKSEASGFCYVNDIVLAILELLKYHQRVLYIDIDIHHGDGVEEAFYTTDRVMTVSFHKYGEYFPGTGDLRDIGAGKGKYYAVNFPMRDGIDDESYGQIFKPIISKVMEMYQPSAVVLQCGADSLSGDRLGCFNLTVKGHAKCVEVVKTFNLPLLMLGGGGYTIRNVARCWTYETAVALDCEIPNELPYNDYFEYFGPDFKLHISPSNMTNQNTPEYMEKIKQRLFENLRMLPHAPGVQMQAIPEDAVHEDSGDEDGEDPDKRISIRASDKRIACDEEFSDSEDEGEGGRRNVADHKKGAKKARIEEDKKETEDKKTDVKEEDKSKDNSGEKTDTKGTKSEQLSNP
# Chain of HDAC3 (O15379 whole entry): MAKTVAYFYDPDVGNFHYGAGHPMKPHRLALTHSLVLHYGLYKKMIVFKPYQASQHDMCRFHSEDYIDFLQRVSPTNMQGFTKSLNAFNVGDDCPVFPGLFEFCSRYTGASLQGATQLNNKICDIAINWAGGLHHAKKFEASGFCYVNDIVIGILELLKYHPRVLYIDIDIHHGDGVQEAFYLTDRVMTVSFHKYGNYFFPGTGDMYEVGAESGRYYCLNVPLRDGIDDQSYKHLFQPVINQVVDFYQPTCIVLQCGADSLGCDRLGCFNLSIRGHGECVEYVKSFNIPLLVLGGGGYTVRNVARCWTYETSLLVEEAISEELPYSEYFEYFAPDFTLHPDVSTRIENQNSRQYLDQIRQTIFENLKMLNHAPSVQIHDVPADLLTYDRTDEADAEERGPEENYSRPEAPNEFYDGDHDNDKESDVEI
# Chain of HDAC3 (Q9Y618 395-498 partner limits assumed): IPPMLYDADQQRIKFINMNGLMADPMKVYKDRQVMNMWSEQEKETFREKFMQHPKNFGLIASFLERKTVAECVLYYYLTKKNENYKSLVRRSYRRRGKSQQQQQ
# T1 sequence (O15379 whole entry, the tested form may be a part): as the sequence (O15379 whole entry) above
# T1 sequence (Q9Y618 395-498 partner limits assumed): as the sequence (Q9Y618 395-498 partner limits assumed) above
Compound,DC50 (HDAC3) [nM],IC50 (HDAC2) [nM],IC50 (HDAC1) [nM],IC50 [1] [nM],also measured
"CCCNNC(=O)c1ccc(N2CCN(CCCCCCC(=O)N[C@H](C(=O)N3C[C@H](O)C[C@H]3C(=O)N[C@@H](C)c3ccc(-c4scnc4C)cc3)C(C)(C)C)CC2)cc1 [Compound 28b, (2S,4R)-1-((S)-3,3-dimethyl-2-(7-(4-(4-(2-propylhydrazine-1-carbonyl)phenyl)piperazin-1-yl)heptanamido)butanoyl)-4-hydroxy-N—((S)-1-(4-(4-methylthiazol-5-yl)phenyl)ethyl)pyrrolidine-2-carboxamide]",< 100,–,–,–,–
"CCCNNC(=O)c1ccc(N2CCN(C(=O)CCCCC(=O)N[C@H](C(=O)N3C[C@H](O)C[C@H]3C(=O)N[C@@H](C)c3ccc(-c4scnc4C)cc3)C(C)(C)C)CC2)cc1 [Compound 27a, (2S,4R)-1-((S)-3,3-dimethyl-2-(6-oxo-6-(4-(4-(2-propylhydrazine-1-carbonyl)phenyl)piperazin-1-yl)hexanamido)butanoyl)-4-hydroxy-N—((S)-1-(4-(4-methylthiazol-5-yl)phenyl)ethyl)pyrrolidine-2-carboxamide]",< 1000,–,–,–,–
CCCNNC(=O)c1ccc(-c2ccc(NC(=O)COCCOCCNc3cccc4c3C(=O)N(C3CCC(=O)NC3=O)C4=O)cc2)cc1 (stereo not drawn) [Compound 7a],–,410 ± 14,82 ± 25,43 ± 18,–
"CCCNNC(=O)c1ccc(-c2ccc(NC(=O)CCCCCCC(=O)N[C@H](C(=O)N3C[C@@H](O)C[C@@H]3C(=O)N[C@@H](C)c3ccc(-c4scnc4C)cc3)C(C)(C)C)cc2)cc1 [XZ9002-NC, N^1—((S)-1-((2R,4S)-4-Hydroxy-2-(((S)-1-(4-(4-methylthiazol-5-yl)phenyl)ethyl)carbamoyl)pyrrolidin-1-yl)-3,3-dimethyl-1-oxobutan-2-yl)-N^5-(4′-(2-propylhydrazine-1-carbonyl)-[1,1′-biphenyl]-4-yl)octanediamide]",–,–,–,–,HDAC3 degradation (in words) (HDAC3; MDA-MB-468 cells (FIG. 3B)): did not induce HDAC3 degradation
"CCCNNC(=O)c1ccc(N2CCN(CCCCCC(=O)N[C@H](C(=O)N3C[C@H](O)C[C@H]3C(=O)N[C@@H](C)c3ccc(-c4scnc4C)cc3)C(C)(C)C)CC2)cc1 [Compound 28a, (2S,4R)-1-((S)-3,3-dimethyl-2-(6-(4-(4-(2-propylhydrazine-1-carbonyl)phenyl)piperazin-1-yl)hexanamido)butanoyl)-4-hydroxy-N—((S)-1-(4-(4-methylthiazol-5-yl)phenyl)ethyl)pyrrolidine-2-carboxamide]",< 100,–,–,–,–
"CCCNNC(=O)c1ccc(N2CCN(C(=O)CCCCCCC(=O)N[C@H](C(=O)N3C[C@H](O)C[C@H]3C(=O)N[C@@H](C)c3ccc(-c4scnc4C)cc3)C(C)(C)C)CC2)cc1 [Compound 27b, (2S,4R)-1-((S)-3,3-dimethyl-2-(8-oxo-8-(4-(4-(2-propylhydrazine-1-carbonyl)phenyl)piperazin-1-yl)octanamido)butanoyl)-4-hydroxy-N—((S)-1-(4-(4-methylthiazol-5-yl)phenyl)ethyl)pyrrolidine-2-carboxamide]",< 100,–,–,–,–
"CCCNNC(=O)c1ccc(-c2ccc(NC(=O)COCCOCCOCCOCCNc3cccc4c3C(=O)N(C3CCC(=O)NC3=O)C4=O)cc2)cc1 (stereo not drawn) [Compound 7c, 14-((2-(2,6-dioxopiperidin-3-yl)-1,3-dioxoisoindolin-4-yl)amino)-N-(4′-(2-propylhydrazine-1-carbonyl)-[1,1′-biphenyl]-4-yl)-3,6,9,12-tetraoxatetradecanamide]",–,450 ± 70,125 ± 35,72 ± 15,"concentration at which HDAC3 is degraded (HDAC3; PROTACs derived from CRBN, breast cancer cell lines): 1.0 µM"
"CCCNNC(=O)c1ccc(N2CCN(C(=O)CCCCCCCCC(=O)N[C@H](C(=O)N3C[C@H](O)C[C@H]3C(=O)N[C@@H](C)c3ccc(-c4scnc4C)cc3)C(C)(C)C)CC2)cc1 [Compound 27c, (2S,4R)-1-((S)-3,3-dimethyl-2-(10-oxo-10-(4-(4-(2-propylhydrazine-1-carbonyl)phenyl)piperazin-1-yl)decanamido)butanoyl)-4-hydroxy-N—((S)-1-(4-(4-methylthiazol-5-yl)phenyl)ethyl)pyrrolidine-2-carboxamide]",< 100,–,–,–,–
"CCCNNC(=O)c1ccc(N2CCN(CCCCCCCCC(=O)N[C@H](C(=O)N3C[C@H](O)C[C@H]3C(=O)N[C@@H](C)c3ccc(-c4scnc4C)cc3)C(C)(C)C)CC2)cc1 [Compound 28d, (2S,4R)-1-((S)-3,3-dimethyl-2-(9-(4-(4-(2-propylhydrazine-1-carbonyl)phenyl)piperazin-1-yl)nonanamido)butanoyl)-4-hydroxy-N—((S)-1-(4-(4-methylthiazol-5-yl)phenyl)ethyl)pyrrolidine-2-carboxamide]",< 100,–,–,–,–
"CCCNNC(=O)c1ccc(-c2ccc(NC(=O)CCC(=O)N[C@H](C(=O)N3C[C@H](O)C[C@H]3C(=O)N[C@@H](C)c3ccc(-c4scnc4C)cc3)C(C)(C)C)cc2)cc1 [Compound 8a, N^1—((S)-1-((2S,4R)-4-hydroxy-2-(((S)-1-(4-(4-methylthiazol-5-yl)phenyl)ethyl)carbamoyl)pyrrolidine-1-yl)-3,3-dimethyl-1-oxobutan-2-yl)-N^4-(4′-(2-propylhydrazine-1-carbonyl)-[1,1′-biphenyl]-4-yl)succinimide]",–,1400 ± 140,300 ± 70,140 ± 40,–
"CCCNNC(=O)c1ccc(-c2ccc(NC(=O)COCCOCCOCCNc3cccc4c3C(=O)N(C3CCC(=O)NC3=O)C4=O)cc2)cc1 (stereo not drawn) [Compound 7b, 2-(2-(2-(2-((2-(2,6-dioxopiperidin-3-yl)-1,3-dioxoisoindolin-4-yl)amino)ethoxy)ethoxy)ethoxy)-N-(4′-(20propylhydrazine-1-carbonyl)[1,1′-biphenyl]-4-yl)acetamide]",–,400 ± 30,90 ± 14,38 ± 23,–
"CCCNNC(=O)c1ccc(N2CCN(CCCCCCCCCC(=O)N[C@H](C(=O)N3C[C@H](O)C[C@H]3C(=O)N[C@@H](C)c3ccc(-c4scnc4C)cc3)C(C)(C)C)CC2)cc1 [Compound 28e, (2S,4R)-1-((S)-3,3-dimethyl-2-(10-(4-(4-(2-propylhydrazine-1-carbonyl)phenyl)piperazin-1-yl)decanamido)butanoyl)-4-hydroxy-N—((S)-1-(4-(4-methylthiazol-5-yl)phenyl)ethyl)pyrrolidine-2-carboxamide]",< 1000,–,–,–,–
"CCCNNC(=O)c1ccc(-c2ccc(NC(=O)CCCCCCCCC(=O)N[C@H](C(=O)N3C[C@H](O)C[C@H]3C(=O)N[C@@H](C)c3ccc(-c4scnc4C)cc3)C(C)(C)C)cc2)cc1 [Compound 8d, N^1—((S)-1-((2S,4R)-4-Hydroxy-2-(((S)-1-(4-(4-methylthiazol-5-yl)phenyl)ethyl)carbamoyl)pyrrolidin-1-yl)-3,3-dimethyl-1-oxobutan-2-yl)-N^10-(4′-(2-propylhydrazine-1-carbonyl)-[1,1′-biphenyl]-4-yl)decanediamide]",–,1420 ± 250,1500 ± 140,550 ± 70,–
